According to US8076487B2, “Pyridone derivative and herbicide” (Kumiai Chemical Industry Co., Ltd., priority 2006, dated 2011):

Legend:
Assay type in all cases: in vivo
[1] = tested on: early watergrass (Echinochloa oryzicola Vasing); assay: Test Example 1: herbicidal effect by soil application to paddy field; conditions: paddy field soil application; active ingredient 1,000 g per 1 hectare; wettable powder added dropwise to water surface the day after sowing; examined on the 21st day after application
In short: (§1)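 Under greenhouse conditions, seeds sown on puddled paddy soil in 100 cm2 pots under 3 cm of standing water received the test compound; injury was assessed with a standard scoring scheme three weeks (day 21) after treatment.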

[2] = tested on: Japanese bulrush (Scirpus juncoides Roxb.); assay: as above; conditions: paddy field soil application; active ingredient 1,000 g per 1 hectare; wettable powder added dropwise to water surface the day after sowing; examined on the 21st day after application
In short: as §1

[3] = tested on: heartshape false pickerelweed (Monochoria vaginalis (Burm.f.) C.Presl); assay: as above; conditions: paddy field soil application; active ingredient 1,000 g per 1 hectare; wettable powder added dropwise to water surface the day after sowing; examined on the 21st day after application
In short: as §1

[4] = tested on: slender amaranth (Amaranthus viridis L.); assay: Test Example 2: herbicidal effect by soil application to upland field; conditions: soil surface spray, upland field soil, 1,000 g active ingredient per hectare, 21st day after application
In short: (§2)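 Seeds were sown in field soil, covered, and the soil surface sprayed with a water-diluted wettable powder at 1,000 g active ingredient per hectare in 1,000 L/ha. Plants grew in a greenhouse, and herbicidal effect was rated against a standard scale 21 days after application.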

[5] = tested on: velvetleaf (Abutilon theophrasti medicus); assay: as above; conditions: soil surface spray, upland field soil, 1,000 g active ingredient per hectare, 21st day after application
In short: as §2

[6] = tested on: green foxtail (Setaria viridis (L.) P. Beauv.); assay: as above; conditions: soil surface spray, upland field soil, 1,000 g active ingredient per hectare, 21st day after application
In short: as §2

[7] = tested on: barnyardgrass (Echinochloa crus-galli (L.) P. Beauv. var. crus-galli); assay: as above; conditions: soil surface spray, upland field soil, 1,000 g active ingredient per hectare, 21st day after application
In short: as §2

[8] = tested on: slender amaranth (Amaranthus viridis L.); assay: Test Example 3: herbicidal effect by application to upland field (foliage treatment); conditions: foliage treatment, plants grown two weeks, 1,000 g active ingredient per hectare, 14th day after application
In short: (§3)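 A single foliar application of a water-diluted wettable powder, at 1,000 g of active ingredient per hectare, was made to plants raised for two weeks from seed in field soil. Herbicidal activity was judged visually after a further 14 days in the greenhouse.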

[9] = tested on: velvetleaf (Abutilon theophrasti medicus); assay: as above; conditions: foliage treatment, plants grown two weeks, 1,000 g active ingredient per hectare, 14th day after application
In short: as §3

[10] = tested on: green foxtail (Setaria viridis (L.) P. Beauv.); assay: as above; conditions: foliage treatment, plants grown two weeks, 1,000 g active ingredient per hectare, 14th day after application
In short: as §3

[11] = tested on: barnyardgrass (Echinochloa crus-galli (L.) P. Beauv. var. crus-galli); assay: as above; conditions: foliage treatment, plants grown two weeks, 1,000 g active ingredient per hectare, 14th day after application
In short: as §3

In the case of `CS(=O)(=O)CCCn1c(C(F)(F)F)ccc(C(=O)C2=C(O)CCCC2=O)c1=O` [I-71], the “herbicidal effect, Echinochloa oryzicola Vasing” value [1] is reported as 5 (90% or more of herbicidal effect and crop phytotoxicity), the “herbicidal effect, Scirpus juncoides Roxb.” value [2] is reported as 5 (90% or more of herbicidal effect and crop phytotoxicity) and the “herbicidal effect, Monochoria vaginalis (Burm. f.) C. Presl” value (“herbicidal effect, Monochoria vaginalis” for short) [3] is reported as 5 (90% or more of herbicidal effect and crop phytotoxicity). The “herbicidal effect (index), Slender Amaranth” value [4] was 5 (90% or more of herbicidal effect and crop phytotoxicity), the “herbicidal effect (index), Velvetleaf” value [5] was 5 (90% or more of herbicidal effect and crop phytotoxicity) and the “herbicidal effect (index), Green Foxtail” value [6] was 5 (90% or more of herbicidal effect and crop phytotoxicity). For the same molecule, the “herbicidal effect (index), Barnyardgrass” value [7] was 5 (90% or more of herbicidal effect and crop phytotoxicity), the “herbicidal effect (index), Slender Amaranth” value [8] was 5 (90% or more of herbicidal effect and crop phytotoxicity) and the “herbicidal effect (index), Velvetleaf” value [9] was 5 (90% or more of herbicidal effect and crop phytotoxicity). For the same molecule, the “herbicidal effect (index), Green Foxtail” value [10] was 5 (90% or more of herbicidal effect and crop phytotoxicity) and the “herbicidal effect (index), Barnyardgrass” value [11] was 5 (90% or more of herbicidal effect and crop phytotoxicity).
With `O=C1CCCC(O)=C1C(=O)c1ccc(C(F)(F)F)n(-c2ccccc2)c1=O` [I-72, 2-[1,2-dihydro-2-oxo-1-phenyl-6-(trifluoromethyl)pyridine-3-carbonyl]-3-hydroxy-2-cyclohexen-1-one] the “herbicidal effect, Echinochloa oryzicola Vasing” value [1] was 5 (90% or more of herbicidal effect and crop phytotoxicity), the “herbicidal effect, Scirpus juncoides Roxb.” value [2] was 5 (90% or more of herbicidal effect and crop phytotoxicity) and the “herbicidal effect, Monochoria vaginalis” value [3] was 5 (90% or more of herbicidal effect and crop phytotoxicity). The “herbicidal effect (index), Slender Amaranth” value [4] was 5 (90% or more of herbicidal effect and crop phytotoxicity), the “herbicidal effect (index), Velvetleaf” value [5] was 5 (90% or more of herbicidal effect and crop phytotoxicity) and the “herbicidal effect (index), Green Foxtail” value [6] was 5 (90% or more of herbicidal effect and crop phytotoxicity). The “herbicidal effect (index), Barnyardgrass” value [7] was 5 (90% or more of herbicidal effect and crop phytotoxicity), the “herbicidal effect (index), Slender Amaranth” value [8] was 5 (90% or more of herbicidal effect and crop phytotoxicity) and the “herbicidal effect (index), Velvetleaf” value [9] was 5 (90% or more of herbicidal effect and crop phytotoxicity). For the same molecule, the “herbicidal effect (index), Green Foxtail” value [10] was 5 (90% or more of herbicidal effect and crop phytotoxicity) and the “herbicidal effect (index), Barnyardgrass” value [11] was 5 (90% or more of herbicidal effect and crop phytotoxicity).
In the case of `O=C1CCCC(O)=C1C(=O)c1ccc(C(F)(F)F)n(-c2ccccc2Cl)c1=O` [I-73], the “herbicidal effect, Echinochloa oryzicola Vasing” value [1] is reported as 5 (90% or more of herbicidal effect and crop phytotoxicity), the “herbicidal effect, Scirpus juncoides Roxb.” value [2] is reported as 5 (90% or more of herbicidal effect and crop phytotoxicity) and the “herbicidal effect, Monochoria vaginalis” value [3] is reported as 5 (90% or more of herbicidal effect and crop phytotoxicity). The “herbicidal effect (index), Slender Amaranth” value [4] was 5 (90% or more of herbicidal effect and crop phytotoxicity), the “herbicidal effect (index), Velvetleaf” value [5] was 5 (90% or more of herbicidal effect and crop phytotoxicity) and the “herbicidal effect (index), Green Foxtail” value [6] was 5 (90% or more of herbicidal effect and crop phytotoxicity). The “herbicidal effect (index), Barnyardgrass” value [7] was 5 (90% or more of herbicidal effect and crop phytotoxicity), the “herbicidal effect (index), Slender Amaranth” value [8] was 5 (90% or more of herbicidal effect and crop phytotoxicity) and the “herbicidal effect (index), Velvetleaf” value [9] was 5 (90% or more of herbicidal effect and crop phytotoxicity). The “herbicidal effect (index), Green Foxtail” value [10] was 4 (70 to less than 90% of herbicidal effect and crop phytotoxicity) and the “herbicidal effect (index), Barnyardgrass” value [11] was 5 (90% or more of herbicidal effect and crop phytotoxicity).
With `O=C1CCCC(O)=C1C(=O)c1ccc(C(F)(F)F)n(-c2cccc(Cl)c2)c1=O` [I-74] the “herbicidal effect, Echinochloa oryzicola Vasing” value [1] was 5 (90% or more of herbicidal effect and crop phytotoxicity), the “herbicidal effect, Scirpus juncoides Roxb.” value [2] was 5 (90% or more of herbicidal effect and crop phytotoxicity) and the “herbicidal effect, Monochoria vaginalis” value [3] was 5 (90% or more of herbicidal effect and crop phytotoxicity). The “herbicidal effect (index), Slender Amaranth” value [4] was 5 (90% or more of herbicidal effect and crop phytotoxicity), the “herbicidal effect (index), Velvetleaf” value [5] was 5 (90% or more of herbicidal effect and crop phytotoxicity) and the “herbicidal effect (index), Green Foxtail” value [6] was 5 (90% or more of herbicidal effect and crop phytotoxicity). For the same molecule, the “herbicidal effect (index), Barnyardgrass” value [7] was 5 (90% or more of herbicidal effect and crop phytotoxicity), the “herbicidal effect (index), Slender Amaranth” value [8] was 5 (90% or more of herbicidal effect and crop phytotoxicity) and the “herbicidal effect (index), Velvetleaf” value [9] was 5 (90% or more of herbicidal effect and crop phytotoxicity). The “herbicidal effect (index), Green Foxtail” value [10] was 5 (90% or more of herbicidal effect and crop phytotoxicity) and the “herbicidal effect (index), Barnyardgrass” value [11] was 5 (90% or more of herbicidal effect and crop phytotoxicity).
With `O=C1CCCC(O)=C1C(=O)c1ccc(C(F)(F)F)n(-c2ccc(Cl)cc2)c1=O` [I-75] the “herbicidal effect, Echinochloa oryzicola Vasing” value [1] was 5 (90% or more of herbicidal effect and crop phytotoxicity), the “herbicidal effect, Scirpus juncoides Roxb.” value [2] was 5 (90% or more of herbicidal effect and crop phytotoxicity) and the “herbicidal effect, Monochoria vaginalis” value [3] was 5 (90% or more of herbicidal effect and crop phytotoxicity). For the same molecule, the “herbicidal effect (index), Slender Amaranth” value [4] was 5 (90% or more of herbicidal effect and crop phytotoxicity), the “herbicidal effect (index), Velvetleaf” value [5] was 5 (90% or more of herbicidal effect and crop phytotoxicity) and the “herbicidal effect (index), Green Foxtail” value [6] was 5 (90% or more of herbicidal effect and crop phytotoxicity). For the same molecule, the “herbicidal effect (index), Barnyardgrass” value [7] was 5 (90% or more of herbicidal effect and crop phytotoxicity), the “herbicidal effect (index), Slender Amaranth” value [8] was 5 (90% or more of herbicidal effect and crop phytotoxicity) and the “herbicidal effect (index), Velvetleaf” value [9] was 5 (90% or more of herbicidal effect and crop phytotoxicity). The “herbicidal effect (index), Green Foxtail” value [10] was 5 (90% or more of herbicidal effect and crop phytotoxicity) and the “herbicidal effect (index), Barnyardgrass” value [11] was 5 (90% or more of herbicidal effect and crop phytotoxicity).
For `COc1ccccc1-n1c(C(F)(F)F)ccc(C(=O)C2=C(O)CCCC2=O)c1=O` [I-76], the “herbicidal effect, Echinochloa oryzicola Vasing” value [1] was 5 (90% or more of herbicidal effect and crop phytotoxicity), the “herbicidal effect, Scirpus juncoides Roxb.” value [2] was 5 (90% or more of herbicidal effect and crop phytotoxicity) and the “herbicidal effect, Monochoria vaginalis” value [3] was 5 (90% or more of herbicidal effect and crop phytotoxicity). For the same molecule, the “herbicidal effect (index), Slender Amaranth” value [4] was 5 (90% or more of herbicidal effect and crop phytotoxicity), the “herbicidal effect (index), Velvetleaf” value [5] was 5 (90% or more of herbicidal effect and crop phytotoxicity) and the “herbicidal effect (index), Green Foxtail” value [6] was 5 (90% or more of herbicidal effect and crop phytotoxicity). The “herbicidal effect (index), Barnyardgrass” value [7] was 5 (90% or more of herbicidal effect and crop phytotoxicity), the “herbicidal effect (index), Slender Amaranth” value [8] was 5 (90% or more of herbicidal effect and crop phytotoxicity) and the “herbicidal effect (index), Velvetleaf” value [9] was 5 (90% or more of herbicidal effect and crop phytotoxicity). For the same molecule, the “herbicidal effect (index), Green Foxtail” value [10] was 3 (50 to less than 70% of herbicidal effect and crop phytotoxicity) and the “herbicidal effect (index), Barnyardgrass” value [11] was 5 (90% or more of herbicidal effect and crop phytotoxicity).
